Assay results from US12673954B2 (BRISTOL-MYERS SQUIBB COMPANY, priority 2021, dated 2026).
Where two headings read alike, the source gives them in different places.

What was measured:
[1] = system: NF-κB pathway, THP1-Dual™ cells; test: STING reporter assay in THP1-Dual cells, NF-κB pathway (SEAP, QUANTI-Blue); format: cell-based, human; conditions: THP1-Dual cells, 10% human plasma, 20 hours, SEAP, 100% activation = 100 μM cGAMP, read-out: NFkB (EC50 μM)
Summary of the method: (§1)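 Activation normalised between DMSO-only baseline and 100 μM cGAMP maximum, after 20 h compound exposure (starting at 100 μM final) at 37° C, 5% CO2. Supernatant SEAP (QUANTI-Blue, OD620) reports NF-κB; secreted luciferase (QUANTI-Luc, RLU at 5 min) reports IRF.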

[2] = system: IRF pathway, THP1-Dual™ cells; test: STING reporter assay in THP1-Dual cells, IRF pathway (Lucia luciferase, QUANTI-Luc); format: cell-based, human; conditions: THP1-Dual cells, 10% human plasma, 20 hours, Lucia luciferase, 100% activation = 100 μM cGAMP, read-out: IRF (EC50 μM)
Summary of the method: as §1

Row | EC50 ([1]; Homo sapiens, THP1-Dual, 20 h) | EC50 ([2]; Homo sapiens, THP1-Dual, 20 h) | EC50 [1] | EC50 [2] | SMILES
1 | 0.68 µM | 0.64 µM | – | – | COC(=O)c1cc(Cl)cc2cc(CNC(=O)c3cnn4cccnc34)oc12 [Example 48, Methyl 5-chloro-2-((pyrazolo[1,5-a]pyrimidine-3-carboxamido)methyl)benzofuran-7-carboxylate]
2 | – | – | 21 µM | 35 µM | CC(OC(=O)c1cc(F)cc2cc(Cn3cnc4ccncc4c3=O)oc12)C(F)(F)F (centres unmarked) [EXAMPLE 364, 1,1,1-Trifluoropropan-2-yl 5-fluoro-2-((4-oxopyrido[4,3-d]pyrimidin-3(4H)-yl)methyl)benzofuran-7-carboxylate]
3 | 1.5 µM | 1.2 µM | – | – | COC(=O)c1cc(C)cc2cc(CNC(=O)c3cncc4[nH]cnc34)oc12 [Example 91, Methyl 2-((3H-imidazo[4,5-c]pyridine-7-carboxamido)methyl)-5-methylbenzofuran-7-carboxylate]
4 | 5.6 µM | 4.7 µM | – | – | COC(=O)c1c(O)c(Cl)cc2cc(CNC(=O)c3cnn4cccnc34)oc12 [EXAMPLE 127, Methyl 5-chloro-6-hydroxy-2-((pyrazolo[1,5-a]pyrimidine-3-carboxamido)methyl)benzofuran-7-carboxylate]
5 | 11 µM | 28 µM | – | – | CN1CCN(CCOC(=O)c2cc(Cl)cc3cc(CNC(=O)c4cnn5cccnc45)oc23)CC1 [EXAMPLE 257, 2-(4-Methylpiperazin-1-yl)ethyl 5-chloro-2-((pyrazolo[1,5-a]pyrimidine-3-carboxamido)methyl)benzofuran-7-carboxylate]
6 | – | – | 23 µM | 16 µM | O=C(OC1CC(c2ccc(F)cc2)C1)c1cc(Cl)cc2cc(CNC(=O)c3cnn4cccnc34)oc12 (single isomer, unassigned) [EXAMPLE 334, 3-(4-Fluorophenyl)cyclobutyl 5-chloro-2-((pyrazolo[1,5-a]pyrimidine-3-carboxamido)methyl)benzofuran-7-carboxylate]
7 | 4 µM | 3.8 µM | – | – | Cc1ccc(C(=O)OCC(F)(F)F)c2oc(Cn3ccc4ccncc4c3=O)cc12 [EXAMPLE 359]
8 | 0.58 µM | 0.53 µM | – | – | Cc1cc(C(=O)OC2CC(F)(F)C2)c2oc(CNC(=O)c3cnn4cccnc34)c(Cl)c2c1 [EXAMPLE 303, 3,3-Difluorocyclobutyl 3-chloro-5-methyl-2-((pyrazolo[1,5-a]pyrimidine-3-carboxamido)methyl)benzofuran-7-carboxylate]
9 | 0.62 µM | 0.67 µM | – | – | O=C(OCC(F)(F)F)c1cccc2c(Cl)c(CNC(=O)c3cnn4cccnc34)oc12 [EXAMPLE 223, 2,2,2-Trifluoroethyl 3-chloro-2-((pyrazolo[1,5-a]pyrimidine-3-carboxamido)methyl)benzofuran-7-carboxylate]
10 | 1.6 µM | 1.1 µM | – | – | COC(=O)c1ccc(C)c2cc(CNC(=O)c3cnn4cccnc34)oc12 [EXAMPLE 31, Methyl 4-methyl-2-((pyrazolo[1,5-a]pyrimidine-3-carboxamido)methyl)benzofuran-7-carboxylate]
11 | 1.4 µM | 1.2 µM | – | – | COC(=O)c1cc(F)cc2c(Cl)c([C@H](C)NC(=O)c3cnn4cccnc34)oc12 [EXAMPLE 111, Methyl (S)-3-chloro-5-fluoro-2-(1-(pyrazolo[1,5-a]pyrimidine-3-carboxamido)ethyl)benzofuran-7-carboxylate]
12 | 31 µM | 21 µM | – | – | COC(=O)c1c(C)ccc2cc(CNC(=O)c3cnn4cccnc34)oc12 [EXAMPLE 108, Methyl 6-methyl-2-((pyrazolo[1,5-a]pyrimidine-3-carboxamido)methyl)benzofuran-7-carboxylate]
13 | 0.75 µM | 0.7 µM | – | – | Cc1cc(C(=O)OC(C)C)c2oc(CNC(=O)c3cnn4cccnc34)cc2c1 [EXAMPLE 273, Isopropyl 5-methyl-2-((pyrazolo[1,5-a]pyrimidine-3-carboxamido)methyl)-benzofuran-7-carboxylate]
14 | 16 µM | 19 µM | – | – | Cc1cc(C(=O)OCC(F)(F)F)c2oc(CN3CCc4ccncc4C3=O)cc2c1 [EXAMPLE 376, 2,2,2-Trifluoroethyl 5-methyl-2-((1-oxo-3,4-dihydro-2,7-naphthyridin-2(1H)-yl)methyl)benzofuran-7-carboxylate]
15 | 1.7 µM | 1.6 µM | – | – | O=C(OC(C(F)(F)F)C(F)(F)F)c1cc(F)cc2cc(CNC(=O)c3cnn4cccnc34)oc12 [EXAMPLE 238, 1,1,1,3,3,3-Hexafluoropropan-2-yl 5-fluoro-2-((pyrazolo[1,5-a]pyrimidine-3-carboxamido)methyl)benzofuran-7-carboxylate]
16 | 18 µM | 21 µM | – | – | COC(=O)c1cccc2cc(CNC(=O)c3cnccn3)oc12 [EXAMPLE 8, Methyl 2-((pyrazine-2-carboxamido)methyl)benzofuran-7-carboxylate]
17 | 4 µM | 5.9 µM | – | – | CC(C)OC(=O)c1ccc(F)c2cc(CNC(=O)c3cnn4cccnc34)oc12 [EXAMPLE 224, Isopropyl 4-fluoro-2-((pyrazolo[1,5-a]pyrimidine-3-carboxamido)methyl)benzofuran-7-carboxylate]
18 | – | – | 9.8 µM | 8 µM | COC(=O)c1cc(Cl)cc2cc(CNC(=O)c3cnc4cccnn34)oc12 [Example 52, Methyl 5-chloro-2-((imidazo[1,2-b]pyridazine-3-carboxamido)methyl) benzofuran-7-carboxylate]
19 | 14 µM | 11 µM | – | – | COc1cc(C(=O)OC(OC)C(F)(F)F)c2oc(CNC(=O)c3cnn4cccnc34)cc2c1 (racemic) [EXAMPLE 281, 2,2,2-Trifluoro-1-methoxyethyl 5-methoxy-2-((pyrazolo[1,5-a]pyrimidine-3-carboxamido)methyl)benzofuran-7-carboxylate]
20 | 3.4 µM | 4.7 µM | – | – | COC(=O)c1cc(C#N)cc2cc(CNC(=O)c3cnn4cccnc34)oc12 [EXAMPLE 105, Methyl 5-cyano-2-((pyrazolo[1,5-a]pyrimidine-3-carboxamido)methyl)benzofuran-7-carboxylate]
21 | 24 µM | 19 µM | – | – | COC(=O)c1cc(F)cc2cc(CN3Cc4ccncc4C3=O)oc12 [EXAMPLE 43, Methyl 5-fluoro-2-((3-oxo-1,3-dihydro-2H-pyrrolo[3,4-c]pyridin-2-yl)methyl)benzofuran-7-carboxylate]
22 | 1.6 µM | 1.3 µM | – | – | O=C(OCC(F)(F)F)c1cccc2cc(CNC(=O)c3cnn4cccnc34)oc12 [EXAMPLE 217, 2,2,2-Trifluoroethyl 2-((pyrazolo[1,5-a]pyrimidine-3-carboxamido)methyl)benzofuran-7-carboxylate]
23 | 0.56 µM | 1.1 µM | – | – | C[C@@H](OC(=O)c1cc(Cl)cc2c(Cl)c(CNC(=O)c3cnn4cccnc34)oc12)C(F)(F)F [EXAMPLE 295, (R)-1,1,1-Trifluoropropan-2-yl 3,5-dichloro-2-((pyrazolo[1,5-a]pyrimidine-3-carboxamido)methyl)benzofuran-7-carboxylate]
24 | 22 µM | 16 µM | – | – | COC(=O)c1cc(Br)cc2cc(CN3CCc4ccncc4C3=O)oc12 [Example 81, Methyl 5-bromo-2-((1-oxo-3,4-dihydro-2,7-naphthyridin-2(1H)-yl)methyl)benzofuran-7-carboxylate]
25 | – | – | 8.9 µM | 7.7 µM | COC(=O)c1cc(Cl)cc2cc(CNC(=O)c3cncc(OC)n3)oc12 [Example 60, Methyl 5-chloro-2-((6-methoxypyrazine-2-carboxamido)methyl) benzofuran-7-carboxylate]
26 | 1.7 µM | 1.5 µM | – | – | COC(=O)c1cc(Cl)cc2cc([C@H](C)NC(=O)c3cnn4cccnc34)oc12 [Example 79, Methyl (S)-5-chloro-2-(1-(pyrazolo[1,5-a]pyrimidine-3-carboxamido)ethyl)benzofuran-7-carboxylate]
27 | 10 µM | 12 µM | – | – | CCc1cc(C(=O)OC)c2oc(CNC(=O)c3cnn4cccnc34)cc2c1 [EXAMPLE 101, Methyl 5-ethyl-2-((pyrazolo[1,5-a]pyrimidine-3-carboxamido)methyl)benzofuran-7-carboxylate]
28 | 2.7 µM | 2.1 µM | – | – | Cc1cc(C(=O)O[C@@H](C)C(F)(F)F)c2oc(CNC(=O)c3cnn4cccnc34)c(Cl)c2c1 [EXAMPLE 301, (S)-1,1,1-Trifluoropropan-2-yl 3-chloro-5-methyl-2-((pyrazolo[1,5-a]pyrimidine-3-carboxamido)methyl)benzofuran-7-carboxylate]
29 | 8.5 µM | 6.7 µM | – | – | COC(=O)Cc1cc(F)cc2cc(CNC(=O)c3cnn4cccnc34)oc12 [Example 47, Methyl 2-(5-fluoro-2-((pyrazolo[1,5-a]pyrimidine-3-carboxamido)methyl)benzofuran-7-yl)acetate]
30 | – | – | 8.1 µM | 9.5 µM | COC(=O)c1cc(Cl)cc2cc(CNC(=O)c3cnn4cc(Cl)cnc34)oc12 [Example 57, Methyl 5-chloro-2-((6-chloropyrazolo[1,5-a]pyrimidine-3-carboxamido)methyl) benzofuran-7-carboxylate]

Row | SMILES | EC50 ([1]; Homo sapiens, THP1-Dual, 20 h) | EC50 ([2]; Homo sapiens, THP1-Dual, 20 h) | EC50 [1] | EC50 [2]
31 | COC(=O)c1cccc2cc(CNC(=O)c3cnn4cc(Cl)cnc34)oc12 [EXAMPLE 13, Methyl 2-((6-chloropyrazolo[1,5-a]pyrimidine-3-carboxamido)methyl) benzofuran-7-carboxylate] | – | – | 11 µM | 8.7 µM
